Results taken from US10155021B2, “Antimicrobial 4-oxoquinolizines” (Emergent Product Development Gaithersburg Inc., priority 2011, dated 2018).
Values after ≈ are worked out from the molar mass of the structure shown. Like-named read-outs stand apart in the source and are kept apart here.

Tests used:
A. baumannii ATCC 19606 = test: MIC without and with sub-inhibitory polymyxin B (Example 4); assay type: cell-based, Acinetobacter baumannii; conditions: Acinetobacter baumannii, ATCC19606, A. baumannii ATCC 19606, without polymyxin B, read-out: MIC without PB
A. baumannii A489 [1] = test: Preliminary MBC without and with sub-inhibitory polymyxin B (Example 4); assay type: cell-based, Acinetobacter baumannii; conditions: Acinetobacter baumannii, A489, A. baumannii A489, without polymyxin B, read-out: MBC without PB
A. baumannii A401 [2] = test: as above; assay type: cell-based, Acinetobacter baumannii; conditions: Acinetobacter baumannii, A401, A baumannii A 401, without polymyxin B, preliminary MBC, read-out: MBC without PB
A. baumannii J2 = test: as above; assay type: cell-based, Acinetobacter baumannii; conditions: Acinetobacter baumannii, J2, A. baumannii J2, without polymyxin B, preliminary MBC, read-out: MBC without PB
[3] = test system: Acinetobacter sp. (H064200250); test: MIC without and with sub-inhibitory polymyxin B (Example 4); assay type: cell-based; conditions: Acinetobacter
A. baumannii A329 [4] = test: MIC determination for Acinetobacter strains (Example 3); assay type: cell-based; conditions: LEV R, CIP R, MRP R, IMP R, AMK R, TET R
A. baumannii A472 [5] = test: as above; assay type: cell-based; conditions: LEV R, CIP R, MRP I, IMP I, AMK R, TET R
A. baumannii A401 [6] = test: MIC without and with sub-inhibitory polymyxin B (Example 4); assay type: cell-based, Acinetobacter baumannii; conditions: Acinetobacter baumannii, A401, A baumannii A 401, without polymyxin B, read-out: MIC without PB
P. aeruginosa 1388-3-02 = test: MIC, panel of quinolone-resistant strains (CLSI); assay type: cell-based; conditions: Pseudomonas aeruginosa, 1388302; CIP R, POL R
Pseudomonas ssp PER-1 = test: MIC, panel of quinolone-resistant strains (CLSI); assay type: cell-based, Pseudomonas spp; conditions: PER1, CIP R, ESBL
A. baumannii A329 [7] = test: Preliminary MBC without and with sub-inhibitory polymyxin B (Example 4); assay type: cell-based, Acinetobacter baumannii; conditions: Acinetobacter baumannii, A329, A. baumannii A329, without polymyxin B, read-out: MBC without PB
P. aeruginosa 143-3-03 = test: MIC, panel of quinolone-resistant strains (CLSI); assay type: cell-based; conditions: Pseudomonas aeruginosa, 143303; CIP I, POL R
[8] = test system: Acinetobacter sp. (H064200250); test: Preliminary MBC without and with sub-inhibitory polymyxin B (Example 4); assay type: cell-based; conditions: Acinetobacter, without polymyxin B, preliminary MBC, read-out: MBC without PB
Summary of the method: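 Bactericidal endpoint scored visually on plates incubated at 37° C (18-20 hours): the lowest concentration where growth fell about 90% versus the positive control, generally leaving one colony or none.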

A. baumannii A473 [9] = test: as above; assay type: cell-based, Acinetobacter baumannii; conditions: Acinetobacter baumannii, A473, A. baumannii A473, without polymyxin B, read-out: MBC without PB
A. baumannii A472 [10] = test: as above; assay type: cell-based, Acinetobacter baumannii; conditions: Acinetobacter baumannii, A472, A. baumannii A472, without polymyxin B, read-out: MBC without PB
A. baumannii A472 [11] = test: MIC without and with sub-inhibitory polymyxin B (Example 4); assay type: cell-based, Acinetobacter baumannii; conditions: Acinetobacter baumannii, A472, A. baumannii A472, without polymyxin B, read-out: MIC without PB
[12] = test system: resistant strains of A. baumannii and one strain of Acinetobacter sp.; test: MIC without and with sub-inhibitory polymyxin B, whole panel / MIC ranges (Example 4; also strains not listed separately); assay type: cell-based; conditions: Acinetobacter baumannii
[13] = test system: Acinetobacter spp. H064200250; test: MIC determination for Acinetobacter strains (Example 3); assay type: cell-based, Acinetobacter sp.; conditions: LEV R, CIP R, MRP R, IMP I
A. baumannii A390 = test: Preliminary MBC without and with sub-inhibitory polymyxin B (Example 4); assay type: cell-based, Acinetobacter baumannii; conditions: Acinetobacter baumannii, A390, A. baumannii A390, without polymyxin B, preliminary MBC, read-out: MBC without PB
A. baumannii A473 [14] = test: MIC without and with sub-inhibitory polymyxin B (Example 4); assay type: cell-based, Acinetobacter baumannii; conditions: Acinetobacter baumannii
A. baumannii A329 [15] = test: as above; assay type: cell-based, Acinetobacter baumannii; conditions: Acinetobacter baumannii
Klebsiella ssp KPC-3 = test: MIC, panel of quinolone-resistant strains (CLSI); assay type: cell-based, Klebsiella spp; conditions: KPC3, CIP R, ESBL
E. coli 2906 = test: MIC, panel of quinolone-resistant strains (CLSI); assay type: cell-based; conditions: Escherichia coli, CIP R
A. baumannii A489 [16] = test: MIC without and with sub-inhibitory polymyxin B (Example 4); assay type: cell-based, Acinetobacter baumannii; conditions: Acinetobacter baumannii, A489, A. baumannii A489, without polymyxin B, read-out: MIC without PB
[17] = Acinetobacter spp. H064200250 (OXA51), without polymyxin B, 2nd experiment, visual reading, read-out: MIC without PB
[18] = Acinetobacter spp. H064200250, without polymyxin B, 1st experiment, read-out: MIC without PB
[19] = Acinetobacter spp. H064200250 (OXA51), 2nd experiment
[20] = Acinetobacter spp. H064200250, 1st experiment
[21] = A473, A. baumannii A473, without polymyxin B, 2nd experiment, visual reading, read-out: MIC without PB
[22] = A329, A. baumannii A329, without polymyxin B, 1st experiment, read-out: MIC without PB

Cc1c(-c2ccc(N)cc2)ccn2c(=O)c(C(=O)O)cc(C3CC3)c12 [Compound 8, 8-(4-amino-phenyl)-1-cyclopropyl-9-methyl-4-oxo-quinolizine-3-carboxylic acid]
MIC (A. baumannii ATCC 19606; 1st experiment): 1 µg/mL (≈ 2.99 µM) | MBC (A. baumannii A489 [1]; 2nd experiment): 8 µg/mL (≈ 23.9 µM) | MBC (A. baumannii A401 [2]; 2nd experiment): 8 µg/mL (≈ 23.9 µM) | MBC (A. baumannii A401 [2]; 1st experiment): 8 µg/mL (≈ 23.9 µM) | MBC (A. baumannii J2; 2nd experiment): 4 µg/mL (≈ 12 µM) | MBC (A. baumannii J2; 1st experiment): 8 µg/mL (≈ 23.9 µM) | MIC ([3]; Acinetobacter spp. H064200250 (OXA51), without polymyxin B, 2nd experiment, MIC read with alamar blue, read-out: MIC without PB, read with alamar blue): 8 µg/mL (≈ 23.9 µM) | MIC [3, 17]: 4 µg/mL (≈ 12 µM) | MIC [3, 18]: 2 µg/mL (≈ 5.98 µM) | MIC (A. baumannii A329 [4]): 16 µg/mL (≈ 47.9 µM) | MIC (A. baumannii A472 [5]): 4 µg/mL (≈ 12 µM) | MIC (A. baumannii A401 [6]; 1st experiment): 32 µg/mL (≈ 95.7 µM) | MIC (P. aeruginosa 1388-3-02): 8 µg/mL (≈ 23.9 µM) | MIC (Pseudomonas ssp PER-1): 16 µg/mL (≈ 47.9 µM) | MBC (A. baumannii A329 [7]; 2nd experiment): 8 µg/mL (≈ 23.9 µM) | MIC (P. aeruginosa 143-3-03): 2 µg/mL (≈ 5.98 µM) | MBC [8, 19]: 4 µg/mL (≈ 12 µM) | MBC [8, 20]: 4 µg/mL (≈ 12 µM) | MBC (A. baumannii A473 [9]; 2nd experiment): 4 µg/mL (≈ 12 µM) | MBC (A. baumannii A472 [10]; 2nd experiment): 4 µg/mL (≈ 12 µM) | MIC (A. baumannii A472 [11]; 1st experiment): 4 µg/mL (≈ 12 µM) | MIC (A. baumannii A472 [11]; 2nd experiment, visual reading): 4 µg/mL (≈ 12 µM) | MIC ([12]; A. baumannii A14, without polymyxin B, 1st experiment, read-out: MIC without PB): 32 µg/mL (≈ 95.7 µM) | MIC ([12]; NCTC13301, A. baumannii NCTC 13301, without polymyxin B, 1st experiment, read-out: MIC without PB): 32 µg/mL (≈ 95.7 µM) | MIC ([12]; NCTC13301, A. baumannii NCTC 13301, without polymyxin B, 2nd experiment, visual reading, read-out: MIC without PB): 16 µg/mL (≈ 47.9 µM) | MIC [13]: 2 µg/mL (≈ 5.98 µM) | MBC (A. baumannii A390; 1st experiment): 8 µg/mL (≈ 23.9 µM) | MIC (A. baumannii A473 [14]; [21]): 4 µg/mL (≈ 12 µM) | MIC (A. baumannii A329 [15]; [22]): 16 µg/mL (≈ 47.9 µM) | MIC (Klebsiella ssp KPC-3): 16 µg/mL (≈ 47.9 µM) | MIC (E. coli 2906): > 32 µg/mL

Cc1c(-c2cc(F)c(N)cc2F)ccn2c(=O)c(C(=O)O)cc(C3CC3)c12 [Compound 2, 8-(3,6-difluoro-4-amino-phenyl)-1-cyclopropyl-9-methyl-4-oxo-quinolizine-3-carboxylic acid]
MIC (A. baumannii ATCC 19606; 2nd experiment, visual reading): 0.125 µg/mL (≈ 0.338 µM) | MBC (A. baumannii A489 [1]; 1st experiment): 2 µg/mL (≈ 5.4 µM) | MBC (A. baumannii A489 [1]; 2nd experiment): 4 µg/mL (≈ 10.8 µM) | MBC (A. baumannii A401 [2]; 2nd experiment): 4 µg/mL (≈ 10.8 µM) | MBC (A. baumannii A401 [2]; 1st experiment): 2 µg/mL (≈ 5.4 µM) | MBC (A. baumannii J2; 2nd experiment): 8 µg/mL (≈ 21.6 µM) | MBC (A. baumannii J2; 1st experiment): 4 µg/mL (≈ 10.8 µM) | MIC (A. baumannii A489 [16]; 1st experiment): 2 µg/mL (≈ 5.4 µM) | MIC (A. baumannii A489 [16]; 2nd experiment, visual reading): 4 µg/mL (≈ 10.8 µM) | MIC [3, 17]: 4 µg/mL (≈ 10.8 µM) | MIC [3, 18]: 4 µg/mL (≈ 10.8 µM) | MIC ([3]; read-out: MIC +[…] PB, read with alamar blue, Acinetobacter spp. H064200250 (OXA51), +[…] polymyxin B, 2nd experiment, MIC read with alamar blue): 0.06 µg/mL (≈ 0.162 µM) | MIC (A. baumannii A329 [4]): 8 µg/mL (≈ 21.6 µM) | MIC (A. baumannii A472 [5]): 4 µg/mL (≈ 10.8 µM) | MIC (A. baumannii A401 [6]; 1st experiment): 4 µg/mL (≈ 10.8 µM) | MIC (A. baumannii A401 [6]; 2nd experiment, visual reading): 4 µg/mL (≈ 10.8 µM) | MIC (P. aeruginosa 1388-3-02): 8 µg/mL (≈ 21.6 µM) | MIC (Pseudomonas ssp PER-1): 16 µg/mL (≈ 43.2 µM) | MBC (A. baumannii A329 [7]; 1st experiment): 8 µg/mL (≈ 21.6 µM) | MBC (A. baumannii A329 [7]; 2nd experiment): 8 µg/mL (≈ 21.6 µM) | MIC (P. aeruginosa 143-3-03): 2 µg/mL (≈ 5.4 µM) | MBC [8, 19]: 8 µg/mL (≈ 21.6 µM) | MBC [8, 20]: 4 µg/mL (≈ 10.8 µM) | MBC (A. baumannii A473 [9]; 1st experiment): 2 µg/mL (≈ 5.4 µM) | MBC (A. baumannii A473 [9]; 2nd experiment): 4 µg/mL (≈ 10.8 µM) | MBC (A. baumannii A472 [10]; 1st experiment): 4 µg/mL (≈ 10.8 µM) | MBC (A. baumannii A472 [10]; 2nd experiment): 8 µg/mL (≈ 21.6 µM) | MIC (A. baumannii A472 [11]; 1st experiment): 4 µg/mL (≈ 10.8 µM) | MIC (A. baumannii A472 [11]; 2nd experiment, visual reading): 4 µg/mL (≈ 10.8 µM) | MIC ([12]; read-out: MIC range without PB 01-10-2008 n = 8, without polymyxin B, 1st experiment, 8 strains): 0.5 to 16 µg/mL (≈ 1.35 to 43.2 µM) | MIC ([12]; without polymyxin B, 2nd experiment, 11 strains, read-out: MIC range without PB 14-10-2008 n = 11): 1 to 16 µg/mL (≈ 2.7 to 43.2 µM) | MIC [13]: 4 µg/mL (≈ 10.8 µM) | MBC (A. baumannii A390; 2nd experiment): 16 µg/mL (≈ 43.2 µM) | MBC (A. baumannii A390; 1st experiment): 8 µg/mL (≈ 21.6 µM) | MIC (A. baumannii A473 [14]; A473, A. baumannii A473, without polymyxin B, 1st experiment, read-out: MIC without PB): 8 µg/mL (≈ 21.6 µM) | MIC (A. baumannii A473 [14]; [21]): 4 µg/mL (≈ 10.8 µM) | MIC (A. baumannii A473 [14]; A473, read-out: MIC +0.06 μg/ml PB, read with alamar blue, A. baumannii A473, +0.06 μg/ml polymyxin B, 2nd experiment, MIC read with alamar blue): 0.125 µg/mL | MIC (A. baumannii A329 [15]; [22]): 8 µg/mL (≈ 21.6 µM) | MIC (A. baumannii A329 [15]; A329, A. baumannii A329, without polymyxin B, 2nd experiment, visual reading, read-out: MIC without PB): 8 µg/mL (≈ 21.6 µM) | MIC (A. baumannii A329 [15]; A329, read-out: MIC +0.06 μg/ml PB, read with alamar blue, A. baumannii A329, +0.06 μg/ml polymyxin B, 2nd experiment, MIC read with alamar blue): 1 µg/mL | MIC (Klebsiella ssp KPC-3): 8 µg/mL (≈ 21.6 µM) | MIC (E. coli 2906): 32 µg/mL (≈ 86.4 µM)
